Experimental findings from patent publication US20240196663A1, “DISPLAY APPARATUS, DISPLAY MODULE, AND ELECTRONIC DEVICE” (SEMICONDUCTOR ENERGY LABORATORY CO., LTD., priority 2022, published 2024) are described below.

The structures appear in SMILES notation.

A short description of the data set: physchem.
Regarding `c1cc(N2CCCC2)c2ccc3c(N4CCCC4)ccnc3c2n1` [Pyrrd-Phen, 4,7-di-1-pyrrolidinyl-1,10-phenanthroline], the pKa (commonly the pH at which an ionisable group is half protonated) was found to be 11.2.

In turn, `c1cnccn1` [pyrazine, reference compound] gave a pKa of 0.37.

As for `c1ccc2c(c1)-c1ccccc1C21c2ccccc2-c2ccc(N3CCCN4CCCN=C43)cc21` [2hppSF, 1-(9,9′-spirobi[9H-fluoren]-2-yl)-1,3,4,6,7,8-hexahydro-2H-pyrimido[1,2-a]pyrimidine], the pKa was determined as 13.9.

Consider `c1cc(N2CCCn3ccnc32)nc(N2CCCn3ccnc32)c1` [2,6tip2Py, 8,8′-pyridine-2,6-diyl-bis(5,6,7,8-tetrahydroimidazo[1,2-a]pyrimidine)], for which the pKa is 9.58.

In the case of `c1cc2ccc3ccc(N4CCCN5CCCN=C54)nc3c2nc1N1CCCN2CCCN=C21` [2,9hpp2Phen, 2,9-bis(1,3,4,6,7,8-hexahydro-2H-pyrimido[1,2-a]pyrimidin-1-yl)-1,10-phenanthroline], the pKa is 13.3.

As for `c1cnc2c(c1)ccc1cccnc12` [phenanthroline, reference compound], the pKa was determined as 4.8.

Regarding `c1cc(-c2ccc3oc4c(-c5cccc(-c6cccc7c6sc6ccccc67)c5)ncnc4c3c2)cc(-c2cccc3c2sc2ccccc23)c1` [4,8mDBtP2Bfpm, 4,8-bis[3-(dibenzothiophen-4-yl)phenyl]-[1]benzofuro[3,2-d]pyrimidine], the pKa turned out to be 0.6.
